The nature of the data set: pKa determination in 75% isopropanol. It is filed as physicochemical. Particulars: product as isolated (assay about 85-88% phosphinic acid).

Two compounds from patent publication EP0236542B1, “Novel organic phosphinic acid compounds” (CYANAMID CANADA INC., priority 1980, dated 1982) can be followed below.

For orientation: pKa means the pH at which an ionisable group is half protonated.

Like-named read-outs stand apart in the source and are kept apart here.

As to `CC(CC(C)(C)C)CP(=O)(O)C1CCCCC1` (centres unmarked) [2,4,4 -trimethylpentyl, cyclohexylphosphinic acid], the pKa (read-out: pKa) amounted to 6.04.

`CC(CC(C)(C)C)CP(=O)(O)CC(C)CC(C)(C)C` (centres unmarked) [di-2,4,4 -trimethylpentylphosphinic acid]: the pKa stood at 6.03 ± 0.05.
